Common to all, as to format: cell-based
For experiment [1], the system named is Streptococcus pneumoniae (ATCC6305). Kind of experiment: Microtitre plate assay, IC90 determination (SPN 6305). To be noted: 90% inhibitory concentration for bacterial growth, 37° C., resazurin fluorescence; for IC90 SPN 6305: 24 hours; for IC90: Streptococcus pneumoniae, ATCC6305, 24 h. As to the method: (§1) The bacteria used in this study were grown overnight in flasks containing 100 ml Mueller-Hinton Broth (Becton Dickinson—cat. no. 275730) in sterile de-ionized water, with shaking, at 37° C. Stocks (0.5 ml/tube) were stored at −70° C. until use. Bacteria titrations were performed in microtiter plates and colony forming units (CFUs) were determined. In general, an inoculum level of approximately 100 CFUs was used for susceptibility testing.
(§2) Flat-bottom, sterile 96-well plastic microtiter plates were filled with 180 μl of sterile deionized water, supplemented with 0.25% BSA. Subsequently, stock solutions (7.8× final test concentration) of compounds were added in 45 μl volumes in column 2 Serial five-fold dilutions (45 μl in 180 μl) were made directly in the microtiter plates from column 2 to reach column 11. Untreated control samples with (column 1) and without (column 12) inoculum were included in each microtiter plate. Depending on the bacteria type, approximately 10 to 60 CFU per well of bacteria inoculum (100 TCID50), in a volume of 100 μl in 2.8× Mueller-Hinton broth medium, was added to the rows A to H, except column 12. The same volume of broth medium without inoculum was added to column 12 in row A to H. The cultures were incubated at 37° C. for 24 hours under a normal atmosphere (incubator with open air valve and continuous ventilation). At the end of incubation, one day after inoculation, the bacterial growth was quantitated fluorometrically. Therefore resazurin (0.6 mg/ml) was added in a volume of 20 μl to all wells 3 hours after inoculation, and the plates were re-incubated overnight. A change in colour from blue to pink indicated the growth of bacteria. The fluorescence was read in a computer-controlled fluorometer (Cytofluor Biosearch) at an excitation wavelength of 530 nm and an emission wavelength of 590 nm. The % growth inhibition achieved by the compounds was calculated according to standard methods. The IC90 (expressed in μg/ml) was defined as the 90% inhibitory concentration for bacterial growth.

Experiment [2] deals with Staphylococcus aureus (ATCC29213). Kind of experiment: Microtitre plate assay, IC90 determination (STA 29213). As to conditions: 90% inhibitory concentration for bacterial growth, 37° C., resazurin fluorescence; for IC90 STA 29213: 24 hours; for IC90: Staphylococcus aureus, ATCC29213, 24 h. As to the method: as §1, §2
(The colour change of resazurin is a common sign of viable cells or microbes.)

In experiment [3] the test system is Pseudomonas aeruginosa (ATCC27853). Put plainly: Microtitre plate assay, IC90 determination (PAE 27853). As to conditions: 90% inhibitory concentration for bacterial growth, 37° C., resazurin fluorescence; for IC90 PAE 27853: 24 hours; for IC90: Pseudomonas aeruginosa, ATCC27853, 24 h. The protocol: as §1, §2
Experiment [4] has as its system Enterococcus faecalis (ATCC29212). Put plainly: Microtitre plate assay, IC90 determination (EFA 29212). As to conditions: 90% inhibitory concentration for bacterial growth, 37° C., resazurin fluorescence; for IC90 EFA 29212: 24 hours; for IC90: Enterococcus faecalis, ATCC29212, 24 h. The protocol: as §1, §2
The subject of experiment [5] is Streptococcus pyogens (ATCC8668). Put plainly: Microtitre plate assay, IC90 determination (SPY 8668). To be noted: 90% inhibitory concentration for bacterial growth, 37° C., resazurin fluorescence; for IC90 SPY 8668: 24 hours; for IC90: Streptococcus, ATCC8668, 24 h. As to the method: as §1, §2

In brackets after ≈: the same amount, converted by molar mass.

In general, IC90 refers to the concentration needed for an effect of 90%. High values mean a need for much substance, low ones an effect from little substance.

For the molecule `COc1nc2ccc(Br)cc2cc1C(c1ccccc1)C(O)(CCc1ccc(F)cc1)CCN(C)C` (stereo not drawn) [Compound 28], the “IC90 SPN 6305” value in experiment [1] stood at 0.9 µg/mL (≈ 1.63 µM). The “IC90 STA 29213” value in experiment [2] came out at 1.7 µg/mL (≈ 3.08 µM). In addition, the “IC90 PAE 27853” value in experiment [3] is 3.9 µg/mL (≈ 7.07 µM). Further, the “IC90 EFA 29212” value in experiment [4] stood at 3.9 µg/mL (≈ 7.07 µM). For the same molecule, the “IC90 SPY 8668” value in experiment [5] is 3.9 µg/mL (≈ 7.07 µM).
For `CSc1nc2ccc(Br)cc2cc1C(c1ccc(Cl)cc1)C(O)(CCc1ccccc1)CCN(C)C` (stereo not drawn) [Compound 31], in experiment [1], the “IC90 SPN 6305” value turned out to be 0.4 µg/mL (≈ 0.685 µM). Further, the “IC90 STA 29213” value in experiment [2] was 58.4 µg/mL (≈ 100 µM). In addition, the IC90 was found to be 9.3 µg/mL (≈ 15.9 µM) in experiment [3], 58.4 µg/mL (≈ 100 µM) in experiment [4] and 1.9 µg/mL (≈ 3.25 µM) in experiment [5].
With `CN(C)CCC(O)(CCc1ccccc1)C(c1ccc(Cl)cc1)c1cc2cc(Br)ccc2nc1N(C)C` (stereo not drawn) [Compound 33], the IC90 in experiment [1] was found to be 0.8 µg/mL (≈ 1.38 µM); in experiment [2], 1.8 µg/mL (≈ 3.1 µM); in experiment [3], 1.8 µg/mL (≈ 3.1 µM); in experiment [4], 1.8 µg/mL (≈ 3.1 µM); in experiment [5] it was 1.5 µg/mL (≈ 2.58 µM).
In the case of `COc1nc2ccc(Br)cc2cc1C(c1ccccc1)C(O)(CCc1ccc(F)cc1)CCN1CCCCC1` (stereo not drawn) [Compound 35], in experiment [1], the “IC90 SPN 6305” value was found to be 3.7 µg/mL (≈ 6.25 µM). Further, the IC90 is 59.2 µg/mL (≈ 100 µM) in experiment [2], 59.2 µg/mL (≈ 100 µM) in experiment [3], 59.2 µg/mL (≈ 100 µM) in experiment [4] and 9.4 µg/mL (≈ 15.9 µM) in experiment [5].
As to `COc1nc2ccc(-c3cccnc3)cc2cc1C(c1ccccc1)C(O)(CCc1ccccc1)CCN(C)C` (stereo not drawn) [Compound 36], the IC90 in experiment [1] is 1.7 µg/mL (≈ 3.2 µM); in experiment [2], 1.7 µg/mL (≈ 3.2 µM); in experiment [3], 42.2 µg/mL (≈ 79.4 µM); in experiment [4] it was 42.2 µg/mL (≈ 79.4 µM); in experiment [5], 16.8 µg/mL (≈ 31.6 µM).
As to `COc1nc2ccc(Br)cc2cc1C(c1ccccc1)C(O)(CCN(C)C)Cc1cccc2ccccc12` (stereo not drawn) [Compound 42], the “IC90 SPN 6305” value in experiment [1] stood at 2.3 µg/mL (≈ 4.04 µM). The “IC90 STA 29213” value in experiment [2] was determined as 9.0 µg/mL (≈ 15.8 µM). Also, the IC90 was found to be 10.1 µg/mL (≈ 17.7 µM) in experiment [3], 22.7 µg/mL (≈ 39.9 µM) in experiment [4] and 4.5 µg/mL (≈ 7.9 µM) in experiment [5].
As for `CCOCCOCCOc1nc2ccc(Br)cc2cc1C(c1ccccc1)C(O)(CCc1ccccc1)CCN(C)C` (stereo not drawn) [Compound 44], in experiment [1], the “IC90 SPN 6305” value was 4.5 µg/mL (≈ 7.08 µM). Also, the “IC90 STA 29213” value in experiment [2] came to 22.6 µg/mL (≈ 35.6 µM). In experiment [3], the “IC90 PAE 27853” value amounted to 4.5 µg/mL (≈ 7.08 µM). Besides, the “IC90 EFA 29212” value in experiment [4] turned out to be 10.1 µg/mL (≈ 15.9 µM). The “IC90 SPY 8668” value in experiment [5] came to 8.0 µg/mL (≈ 12.6 µM).
With `COc1nc2ccc(Br)cc2cc1C(c1cccc(Cl)c1)C(O)(CCc1ccccc1)CCN(C)C` (stereo not drawn) [Compound 67], the “IC90 SPN 6305” value in experiment [1] turned out to be 2.3 µg/mL (≈ 4.05 µM). In addition, the “IC90 STA 29213” value in experiment [2] turned out to be 2.3 µg/mL (≈ 4.05 µM). In addition, in experiment [3], the “IC90 PAE 27853” value came out at 56.8 µg/mL (≈ 100 µM). For the same molecule, the “IC90 EFA 29212” value in experiment [4] worked out at 56.8 µg/mL (≈ 100 µM). In experiment [5], the “IC90 SPY 8668” value stood at 56.8 µg/mL (≈ 100 µM).
As for `COc1nc2ccc(Br)cc2cc1C(c1cccc(Cl)c1)C(O)(CCc1ccccc1)CCN(C)C` (stereo not drawn) [Compound 68], the “IC90 SPN 6305” value in experiment [1] amounted to 0.7 µg/mL (≈ 1.23 µM). Moreover, the figures for the IC90 in experiment [2], in experiment [4] and in experiment [5] were 2.3 µg/mL (≈ 4.05 µM), 56.8 µg/mL (≈ 100 µM) and 56.8 µg/mL (≈ 100 µM), respectively. For the same molecule, the “IC90 PAE 27853” value in experiment [3] stood at 11.3 µg/mL (≈ 19.9 µM).
Take `COc1nc2ccc(Br)cc2cc1C(c1cccc(C)c1)C(O)(CCc1ccccc1)CCN(C)C` (stereo not drawn) [Compound 71]: the IC90 in experiment [1] was 1.7 µg/mL (≈ 3.1 µM); in experiment [2], 2.2 µg/mL (≈ 4.02 µM); in experiment [3], 54.8 µg/mL (≈ 100 µM); in experiment [4] it was 54.8 µg/mL (≈ 100 µM); in experiment [5], 43.5 µg/mL (≈ 79.4 µM).
As for `COc1nc2ccc(Br)cc2cc1C(c1cccc(C)c1)C(O)(CCc1ccccc1)CCN(C)C` (stereo not drawn) [Compound 72], the “IC90 SPN 6305” value in experiment [1] came to 2.2 µg/mL (≈ 4.02 µM). The “IC90 STA 29213” value in experiment [2] is 1.7 µg/mL (≈ 3.1 µM). The “IC90 PAE 27853” value in experiment [3] was 43.5 µg/mL (≈ 79.4 µM). Besides, the “IC90 EFA 29212” value in experiment [4] came out at 43.5 µg/mL (≈ 79.4 µM). Also, in experiment [5], the “IC90 SPY 8668” value stood at 43.5 µg/mL (≈ 79.4 µM).
With `COc1ccc(C(c2cc3cc(Br)ccc3nc2OC)C(O)(CCc2ccccc2)CCN(C)C)cc1` (stereo not drawn) [Compound 73], it took 1.8 µg/mL (≈ 3.19 µM) to reach the 90% level in experiment [1] (IC90). In experiment [2], the “IC90 STA 29213” value came to 7.1 µg/mL (≈ 12.6 µM). Also, in experiment [3], the “IC90 PAE 27853” value came out at 8.0 µg/mL (≈ 14.2 µM). Also, in experiment [4], the “IC90 EFA 29212” value came out at 8.9 µg/mL (≈ 15.8 µM). Moreover, the “IC90 SPY 8668” value in experiment [5] came to 4.0 µg/mL (≈ 7.1 µM).

Values taken from patent US20130030017A1, “QUINOLINE DERIVATIVES AS ANTIBACTERIAL AGENTS” (priority 2005, published 2013).
